Several values for one entry are separate records, joined by “and”; a condition that tells them apart may be missing. Equal values may be shown once. Read-outs that look alike come from different tables or passages of the source.
Tests used:
CCRF-CEM cells = assay: intracellular ROS, ROS-red staining and flow cytometry, CCRF-CEM; type: cell-based, human; set-up: ROS Negative Cells: unit not given here; conditions: for ROS Negative Cells / ROS Positive Cells: listed as AVX420
Experimental: Data are the mean ± stdev of 3 biological replicates. […] Data are the mean ± stdev of 3 biological replicates.
Rather, when combined with AVX420, exogenous AA augmented cell death (Fig. 6e). […] The response occurred within 1 h, peaked at 8–12 h, and preceded the loss of cell viability (Fig. S9a, b).
After treatment, cells were stained with cellular ROS Assay Kit (Cat. No. ab186029; Abcam, Cambridge, United Kingdom) following the manufacturer’s instructions, and ROS-positive cells were quantified by flow cytometry using either the NovoCyte flow cytometer, and Novoexpress Software v1.5.0 from Agilent Technologies (Santa Clara, USA) or the CytoFLEX flow cytometer and CytExpert analysis software v 2.5 from Beckman Coulter (California, United States). An example showing the gating strategy used to assess ROS-Red staining is found in Fig. S9d.
Figure S9. Intracellular ROS accumulation and cell death. a. Time dependency of the in-crease in iROS following treatment with AVX420 in CCRF-CEM cells as measured by ROS-red stain-ing. Data are the mean ±stdev from ≥2 biological replicates b. […]
±stdev of ≥2 biological replicates c. intracellular ROS measurements in CCRF-CEM cells treated with 0.5 µM AVX420 in the presence of 20 µM arachidonic acid (AA) or 5 µM liproxstatin (Lip) for 4 hours. Data are the mean ± stdev of 2 biological replicates. d. […]
analysis of ROS Red staining by flow cytometry. (i) Gating of live cells using FSC-H versus SSC-H.
(ii) Gating based on ROS Deep Red staining under control conditions and after treatment with (iii) […]
(1 picture or pasted object on this page, not shown here)

HL-60 cells = assay: cell viability, resazurin assay, HL-60; type: cell-based, human; conditions: for cell viability relative to 0 µM = 100 (Figure S7b): listed as AVX420
Excerpt: Bjørn Tore Gjertsen (University of Bergen, Norway). […] The cell lines were not authenticated.
Figure S7. Sensitivity of cell lines derived from hematological malignancies. a. cell viability expressed as relative light units ( RLU) is plotted for all cell lines in the screen that were de-rived from hematological malignancies. b. corresponding IC50 values calculated by non-linear regression analysis. c. Cell viability assessed by resazurin assays in MV-4-11 and HL-60 cells.
Data were normalized to the vehicle-treated control (100%) and are the mean of 4 biological replicates ±stdev (MV-4-11) and 5 biological replicates ±stdev (HL-60), Non-linear regres- […]

isolated human PBMCs = assay: eicosanoid release from A23187-stimulated PBMCs (ELISA); type: cell-based; set-up: 6-Keto PGF1a / 12-HETE: unit not given here; conditions: for LTB4 level, PBMCs / PGE2 level, PBMCs / TxB2 level, PBMCs: A23187, individual replicate; for 6-Keto PGF1a: A23187 stimulated; for IC50: Homo sapiens, PBMC, 0.25 h, 30 µM A23187 15 min
Experimental: In PBMCs, the calcium ionophore A23187 stimulated the release of PGE2, TXB2, LTB4, 6-keto prostaglandin F1α (PGF1α), and 12-HETE.
PBMCs were isolated from buffy coats using Lymphoprep as described by the manufacturer ([…] Technologies, Vancouver, Canada). Red blood cells were lysed and removed using RBC lysis buffer (Roche, Basel, Switzerland) and the remaining cells were resuspended in 10 mL of RPMI-1640 supplemented with 5% FBS. The TC20 automated cell counter (BIO-RAD, Hercules, California, USA) was used to count the number of cells and check the viability by staining with trypan blue (0.4%) (NanoEnTek, Waltham, MA, USA). For experiments, 5 × 10^5 cells were seeded in 0.5 mL in 24 well plates with RPMI medium supplemented with 5% FBS, 0.3 mg/mL glutamine, and 0.1 mg/mL gentamicin. Cells were preincubated with inhibitors for 2 h before incubating with 30 µM Ca^2+ ionophore A23187 for 15 min to activate cPLA2α. After incubation, the supernatant was obtained by centrifugation at 5992 × g for 10 min at 4° and stored at −80 °C until assayed for PGE2, LTB4, TxB2, 6-Keto PGF1α, and 12S-HETE using enzyme-linked immunosorbent assays (ELISAs) (Cayman #514435, Cayman #10009292, Cayman #501020, Cayman #15210, and Enzo Lifesciences #ADI-900-050). After an overnight hybridization, the enzymatic conversion of substrate was read at OD420 nm using a Cytation 5 multimode platereader (Biotek Instruments, Winooski, VT, USA). Standard curves fit using 4-parameter logistic regression in myassays.com were used to calculate eicosanoid concentrations.

Compound: CCCCCCCOc1ccc(OCC(=O)c2nc(C(=O)OC)cs2)cc1 [GK420]
- time of iROS peak (CCRF-CEM cells; CCRF-CEM (Fig. S9a)): 8 to 12 h
- time to iROS response (CCRF-CEM cells; CCRF-CEM (Fig. S9a)): ≤ 1 h
- ROS Negative Cells (CCRF-CEM cells; CCRF-CEM, 0.25 µM): 70 and 65 and 71 and 61
- ROS Positive Cells (CCRF-CEM cells; CCRF-CEM, 0.25 µM): 39 and 30 and 35 and 29
- ROS Negative Cells (CCRF-CEM cells; CCRF-CEM, 0.5 µM): 34 and 29 and 30 and 32 and 33
- ROS Positive Cells (CCRF-CEM cells; CCRF-CEM, 0.5 µM): 70 and 68 and 67 and 66 and 71
- ROS Negative Cells (CCRF-CEM cells; CCRF-CEM, 1 µM): 13 and 15 and 12 and 11
- ROS Positive Cells (CCRF-CEM cells; CCRF-CEM, 1 µM): 89 and 87 and 85 and 88
- ROS Negative Cells (CCRF-CEM cells; CCRF-CEM, 2 µM): 8 and 6 and 9 and 10
- ROS Positive Cells (CCRF-CEM cells; CCRF-CEM, 2 µM): 90 and 92 and 94 and 91
- intracellular ROS (iROS) (CCRF-CEM cells; CCRF-CEM, 4 h): dose-dependent increase
- cell viability relative to 0 µM = 100 (Figure S7b) (HL-60 cells; HL-60, 1 µM, rep1-5): 97.3013 and 90.6778 and 115.865 and 99.353 and 90.3923
- cell viability relative to 0 µM = 100 (Figure S7b) (HL-60 cells; HL-60, 3 µM, rep1-5): 90.5903 and 85.7617 and 98.8696 and 77.2301 and 87.8872
- cell viability relative to 0 µM = 100 (Figure S7b) (HL-60 cells; HL-60, 5 µM, rep1-5): 71.3359 and 44.5692 and 65.87 and 61.5884 and 62.96
- cell viability relative to 0 µM = 100 (Figure S7b) (HL-60 cells; HL-60, 7 µM, rep1-5): 63.2164 and 43.3688 and 54.7108 and 42.3668 and 54.7116
- cell viability relative to 0 µM = 100 (Figure S7b) (HL-60 cells; HL-60, 10 µM, rep1-5): 36.7957 and 43.3263 and 38.5629 and 49.5907
- cell viability relative to 0 µM = 100 (Figure S7b) (HL-60 cells; HL-60, 12 µM, rep1-5): 32.4548 and 37.5058 and 42.0594 and 45.299
- cell viability relative to 0 µM = 100 (Figure S7b) (HL-60 cells; HL-60, 15 µM, rep1-5): 31.4644 and 36.8417 and 35.3195 and 49.7069
- cell viability relative to 0 µM = 100 (Figure S7b) (HL-60 cells; HL-60, 20 µM, rep1-5): 29.4668 and 34.076 and 29.9279 and 43.7902
- viability at 10 µM (HL-60 cells; Homo sapiens, HL-60, HL-60, 10 µM, rep1-5, read-out: cell viability relative to 0 µM = 100 (Figure S7b)): 49.4%
- viability at 12 µM (HL-60 cells; Homo sapiens, HL-60, HL-60, 12 µM, rep1-5, read-out: cell viability relative to 0 µM = 100 (Figure S7b)): 45.2%
- viability at 15 µM (HL-60 cells; Homo sapiens, HL-60, HL-60, 15 µM, rep1-5, read-out: cell viability relative to 0 µM = 100 (Figure S7b)): 42.5%
- viability at 20 µM (HL-60 cells; Homo sapiens, HL-60, HL-60, 20 µM, rep1-5, read-out: cell viability relative to 0 µM = 100 (Figure S7b)): 36.3%
- IC50 (HL-60 cells; Homo sapiens, HL-60, resazurin assay): 4600 nM
- LTB4 level, PBMCs (isolated human PBMCs; 0.5 µM): 429.9 pg/mL and 749.3 pg/mL and 255.6 pg/mL and 605.5 pg/mL
- PGE2 level, PBMCs (isolated human PBMCs; 0.5 µM): 169.2 pg/mL and 38.5 pg/mL and 267.8 pg/mL and 309 pg/mL
- TxB2 level, PBMCs (isolated human PBMCs; 0.5 µM): 8408.2 pg/mL and 1252.3 pg/mL and 13129.8 pg/mL and 13753.8 pg/mL
- 6-Keto PGF1a (isolated human PBMCs; 0.5 µM): 21.6 and 26.4
- LTB4 level, PBMCs (isolated human PBMCs; 1 µM): 370.9 pg/mL and 289.7 pg/mL and 718.4 pg/mL and 239.1 pg/mL
- PGE2 level, PBMCs (isolated human PBMCs; 1 µM): 247.2 pg/mL and 134.2 pg/mL and 36.8 pg/mL and 244.2 pg/mL
- TxB2 level, PBMCs (isolated human PBMCs; 1 µM): 11110.6 pg/mL and 8481.1 pg/mL and 1330.2 pg/mL and 14838.7 pg/mL
- 6-Keto PGF1a (isolated human PBMCs; 1 µM): 16.6 and 27.5
- LTB4 level, PBMCs (isolated human PBMCs; 2.5 µM): 144.2 pg/mL and 219 pg/mL and 387.5 pg/mL and 190 pg/mL
- PGE2 level, PBMCs (isolated human PBMCs; 2.5 µM): 238.2 pg/mL and 102.2 pg/mL and 66 pg/mL and 196.8 pg/mL
- TxB2 level, PBMCs (isolated human PBMCs; 2.5 µM): 7528.6 pg/mL and 7919.2 pg/mL and 1078.1 pg/mL and 10138.3 pg/mL
- 6-Keto PGF1a (isolated human PBMCs; 2.5 µM): 15.1 and 17.9
- LTB4 level, PBMCs (isolated human PBMCs; 5 µM): 107.5 pg/mL and 125.8 pg/mL and 244.5 pg/mL and 111.7 pg/mL
- PGE2 level, PBMCs (isolated human PBMCs; 5 µM): 149.4 pg/mL and 71.6 pg/mL and 38.8 pg/mL and 141.2 pg/mL
- TxB2 level, PBMCs (isolated human PBMCs; 5 µM): 4591 pg/mL and 3235.3 pg/mL and 764.8 pg/mL and 7035.5 pg/mL
- 6-Keto PGF1a (isolated human PBMCs; 5 µM): 16.9 and 21.1
- LTB4 level, PBMCs (isolated human PBMCs; 10 µM): 64.7 pg/mL and 93.8 pg/mL and 115.3 pg/mL and 64.3 pg/mL
- PGE2 level, PBMCs (isolated human PBMCs; 10 µM): 129 pg/mL and 52.7 pg/mL and 30.5 pg/mL and 67 pg/mL
- TxB2 level, PBMCs (isolated human PBMCs; 10 µM): 2621.7 pg/mL and 1488.5 pg/mL and 633.4 pg/mL and 3277.7 pg/mL
- IC50 (isolated human PBMCs; PBMCs, read-out: IC50 LTB4 inhibition): 317 nM
- IC50 (isolated human PBMCs; PBMCs, read-out: IC50 PGE2 inhibition): 1100 nM
- IC50 (isolated human PBMCs; PBMCs, read-out: IC50 TXB2 inhibition): 2200 nM
- effect on 6-keto PGF1α and 12-HETE (isolated human PBMCs; PBMCs, A23187, IC50 values could not be calculated): tendency to suppress

Source: publication PMC11696576, “Next generation thiazolyl ketone inhibitors of cytosolic phospholipase A2 α for targeted cancer therapy” (Nature Communications, 2025)
